Results reported in patent US7445931B2, “Compositions and methods for enrichment of neural stem cells using ceramide analogs” (Bresagen, Inc., priority 2002, dated 2008).

Key:
Oct-4 = Oct-4 immunoblotting of EB8 stage cells incubated with S18; type: cell-based, mouse; details: EB8 stage cells incubated with 75 μM S18 for 24 hours
Method: (§1) In vitro differentiating ES cells at stage EB8 were incubated for […] with 75 μM S18, or 35 μM N-acyl sphingosine or other ceramide analogs. Protein was isolated from cells incubated with S18 for 24 hours and from untreated cells, separated by SDS-PAGE, and the expression of Oct-4 was analyzed by immunoblotting.

EB8-derived cells = test: Injection of ceramide analog treated EB8-derived cells into mouse brain, teratoma formation; type: in vivo, C57BL6 mice
Method: as §1
Prior to injection into the mouse brain, ES cells were labeled with Vybrant-DiI (rhodamine fluorescence) for permanent vital staining and were mixed with India ink in order to track the injection channel and cell migration/tissue integration. 1×10^4 of the untreated ES-J1 cells were injected, while 2×10^4 of the S18-treated cells were injected in order to control for the percentage of cells lost to apoptosis. The ES cells were injected into the right brain hemisphere (bregma—1.5 mm, 1 mm lateral of central suture, 2.0 mm deep) of 8-10 day old C57BL6 mice using a Hamilton syringe. After 7-21 days, the mice were sacrificed, the brain isolated and fixed with 10% PBS-buffered formalin. The brains were Vibratome sectioned at 100 μm. The distribution of the injected cells was determined by fluorescence microscopy.

[1] = test system: seeded sfEBMs derived from HESC colonies; test: S18 treatment of seeded serum free embryoid bodies (sfEBMs), morphology and DAPI staining; type: cell-based, human
Text: sfEBMs were derived from domed HESC colonies, grown in suspension for 24 days with one passage, and seeded to polyornithine/laminin coated chamber slides in DMEM/F12, supplemented with 1×N2 (Gibco), and 1% FCS.
Apoptosis in seeded serum free embryoid bodies was monitored by morphological observation of cell death and DAPI staining to reveal apoptotic nuclei. Apoptotic nuclei were observed as obviously fragmented and degenerating nuclei, with small punctuate patterns of DAPI staining. Rosette regions from essentially serum free embryoid bodies in suspension were passaged further in the same medium, either withdrawing S18 or culturing the embryoid bodies for an additional 4 to 8 days in the presence of S18. Rosette regions were then seeded onto polyornithine/laminin coated slides for analysis of proliferation and differentiation to neural lineages.

CCCCCCCC/C=C\CCCCCCCC(=O)NC(CO)CO [S18, N-(2-hydroxy-1-(hydroxymethyl)ethyl)-oleoylamide]
Oct-4 immunostaining relative to untreated control cells (Oct-4): 25% | decrease in Oct-4 protein levels (Oct-4): 75% | teratoma formation (EB8-derived cells; EB8-derived cells treated with S18, injected into mouse brain, ten days after injection): did not show teratoma formation | migration and integration of injected cells (EB8-derived cells; S18-treated EB8-derived cells, Vybrant diI stained, host killed after 21 days): migrated to the hippocampus, and integrated into the host's brain tissue | time until effect was observed ([1]; 6, 8 or 10 μM S18): ≤ 24 h | effect on neural rosette structures ([1]; 6, 8 or 10 μM S18 for 36 hours): did not appear to be adversely affected | induction of apoptosis in the culture ([1]; 6, 8 or 10 μM S18 for 36 hours): induced apoptosis of a large proportion of the culture | cell death ([1]; 36 hours exposure to 6 μM S18): a high proportion of cells within these cultures have been killed | cell death ([1]; 36 hours exposure to 8 μM S18): a high degree of cell death is apparent
